Data reported in PMC10905675, “INX-315, a Selective CDK2 Inhibitor, Induces Cell Cycle Arrest and Senescence in Solid Tumors” (Cancer Discovery, 2023).
Where two headings read alike, the source gives them in different places.

How the values were obtained:
[1] = tested on: five cell lines with CCNE1 amplification (ovarian cancer); assay: CellTiter Glo viability assay; type: cell-based; details: 144 h
all other targets = assay: SelectScreen follow-up dose-response; type: biochemical; details: dose-response 50 pmol/L to 1 µmol/L; kinases with ≥80% inhibition other than CDK2 complexes and CSF1R
Source text: (§1) INX-315 was first evaluated in the SelectScreen Biochemical Kinase Profiling at Thermo Fisher Scientific (Madison, WI). The primary screen consisted of INX-315 dosed at a single concentration of 100 nmol/L in 1% DMSO across each platform within the SelectScreen array of assays, LanthaScreen Eu Kinase Binding Assay; AdaptaScreen; and Z'LyteScreen using preestablished conditions at Thermo Fisher Scientific as shown in Supplementary Table S2. […] The follow-up screen consisted of 10-point dose–response curves for INX-315 from 1 µmol/L to 0.0495 nmol/L.

CDK2/cyclin A1/E1/O = CDK2/cyclin A1/E1/O (Homo sapiens, UniProt P24941); assay: SelectScreen follow-up dose-response; type: biochemical; details: dose-response 50 pmol/L to 1 µmol/L
Source text: as §1

CSF1R = CSF1R (Homo sapiens, UniProt P07333); assay: SelectScreen follow-up dose-response; type: biochemical; details: dose-response 50 pmol/L to 1 µmol/L
Source text: as §1

OVCAR3 cells = assay: Cell cycle flow cytometry; type: cell-based; details: 24 hours, as little as 30–100 nmol/L
[2] = tested on: five lines without CCNE1 amplification (ovarian cancer); assay: CellTiter Glo viability assay; type: cell-based; details: 144 h, six days
CDK2/cyclin E1 = target: T1, CDK2/cyclin E1 (Homo sapiens, UniProt P24941); assay: Nanosyn biochemical assay; details: for IC50: Nanosyn
T1 construct: purchased Millipore 14-475
Method: (§2) Compounds were tested in kinase assays (Nanosyn, Inc.). The assays were completed using microfluidic kinase detection technology (Caliper Assay Platform). The compounds were tested in 12-point dose–response format in singlicate at the Km for ATP. Phosphoacceptor substrate peptide concentration used was 1 µmol/L and staurosporine was used as the reference compound for all assays. Details for individual Nanosyn assays performed are provided here: […]

CDK2/cyclin A2 = target: T2, CDK2/cyclin A2 (Homo sapiens, UniProt P24941); assay: Nanosyn biochemical assay; details: Supp Fig S1D, representative dose response curve, read-out: IC50 CDK2 - Cyclin A
T2 construct: purchased Millipore 14-448
Method: as §2

CDK9/cyclin T1 = target: T3, CDK9/cyclin T1 (Homo sapiens, UniProt P50750); assay: Nanosyn biochemical assay; details: Supp Fig S1D, representative dose response curve, read-out: IC50 CDK9 - Cyclin T1
T3 construct: purchased Carna 04-110
T3 sequence (P50750 whole entry): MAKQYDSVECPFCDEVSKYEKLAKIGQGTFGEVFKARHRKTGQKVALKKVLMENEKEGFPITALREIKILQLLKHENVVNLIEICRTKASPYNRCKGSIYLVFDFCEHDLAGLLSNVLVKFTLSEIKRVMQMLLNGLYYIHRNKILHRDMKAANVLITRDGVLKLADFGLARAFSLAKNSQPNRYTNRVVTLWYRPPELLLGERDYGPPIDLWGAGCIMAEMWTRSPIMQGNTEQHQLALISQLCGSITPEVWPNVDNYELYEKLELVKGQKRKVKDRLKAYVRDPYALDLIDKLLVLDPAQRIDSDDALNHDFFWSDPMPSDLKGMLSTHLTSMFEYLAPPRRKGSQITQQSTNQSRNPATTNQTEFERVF
T3 sequence (O60563 whole entry partner): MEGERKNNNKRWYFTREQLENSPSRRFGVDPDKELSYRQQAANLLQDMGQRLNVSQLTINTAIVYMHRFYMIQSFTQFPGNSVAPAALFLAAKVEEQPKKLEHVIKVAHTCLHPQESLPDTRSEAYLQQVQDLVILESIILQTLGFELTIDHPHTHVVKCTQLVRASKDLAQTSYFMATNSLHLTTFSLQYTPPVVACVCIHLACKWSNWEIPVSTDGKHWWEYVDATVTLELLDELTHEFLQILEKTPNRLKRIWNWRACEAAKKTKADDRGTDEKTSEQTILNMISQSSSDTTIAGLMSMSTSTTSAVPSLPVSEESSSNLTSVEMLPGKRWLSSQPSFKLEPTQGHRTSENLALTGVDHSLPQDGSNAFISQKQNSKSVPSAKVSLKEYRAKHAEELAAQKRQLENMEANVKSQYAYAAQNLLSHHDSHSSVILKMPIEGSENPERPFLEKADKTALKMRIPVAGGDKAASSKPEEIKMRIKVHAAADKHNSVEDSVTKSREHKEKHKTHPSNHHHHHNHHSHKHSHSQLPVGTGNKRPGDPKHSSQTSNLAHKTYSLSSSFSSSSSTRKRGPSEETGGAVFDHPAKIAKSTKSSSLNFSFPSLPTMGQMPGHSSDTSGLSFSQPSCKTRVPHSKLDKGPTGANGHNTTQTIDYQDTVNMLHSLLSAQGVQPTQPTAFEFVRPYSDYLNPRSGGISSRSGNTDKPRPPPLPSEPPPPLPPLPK
Method: as §2

CDK5/p25 = target: T4, CDK5/p25 (Homo sapiens, UniProt Q00535); assay: Nanosyn biochemical assay; details: ATP at Km, value (SEM), read-out: IC50 (nmol/L) CDK5/p25
T4 construct: purchased BPS 40105
T4 sequence (Q00535 whole entry): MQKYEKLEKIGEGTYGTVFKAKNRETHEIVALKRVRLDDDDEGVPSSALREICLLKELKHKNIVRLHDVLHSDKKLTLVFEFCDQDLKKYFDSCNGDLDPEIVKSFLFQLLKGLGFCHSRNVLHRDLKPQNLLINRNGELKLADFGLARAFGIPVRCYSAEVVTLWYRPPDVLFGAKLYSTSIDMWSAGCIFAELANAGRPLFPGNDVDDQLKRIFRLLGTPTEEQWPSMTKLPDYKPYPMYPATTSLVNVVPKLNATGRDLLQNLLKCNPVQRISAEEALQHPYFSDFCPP
T4 sequence (Q15078 99-307 partner limits assumed): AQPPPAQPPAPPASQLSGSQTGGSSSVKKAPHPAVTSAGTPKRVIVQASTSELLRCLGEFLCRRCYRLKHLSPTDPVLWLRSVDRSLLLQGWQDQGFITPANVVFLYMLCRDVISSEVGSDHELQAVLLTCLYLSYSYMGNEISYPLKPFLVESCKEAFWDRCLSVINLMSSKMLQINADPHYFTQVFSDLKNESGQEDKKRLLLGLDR
Method: as §2

CDK1/cyclin B1 = target: T5, CDK1/cyclin B1 (Homo sapiens, UniProt P06493); assay: Nanosyn biochemical assay
T5 construct: purchased Millipore 14-450M
T5 sequence (P06493 whole entry): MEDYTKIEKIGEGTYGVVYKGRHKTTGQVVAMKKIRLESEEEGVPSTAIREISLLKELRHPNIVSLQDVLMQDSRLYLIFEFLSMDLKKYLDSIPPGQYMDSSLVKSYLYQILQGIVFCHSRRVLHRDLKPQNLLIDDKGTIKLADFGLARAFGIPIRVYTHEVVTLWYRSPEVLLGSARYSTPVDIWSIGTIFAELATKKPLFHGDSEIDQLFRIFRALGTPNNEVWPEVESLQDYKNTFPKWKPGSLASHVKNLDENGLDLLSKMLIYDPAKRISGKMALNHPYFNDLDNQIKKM
T5 sequence (P14635 whole entry partner): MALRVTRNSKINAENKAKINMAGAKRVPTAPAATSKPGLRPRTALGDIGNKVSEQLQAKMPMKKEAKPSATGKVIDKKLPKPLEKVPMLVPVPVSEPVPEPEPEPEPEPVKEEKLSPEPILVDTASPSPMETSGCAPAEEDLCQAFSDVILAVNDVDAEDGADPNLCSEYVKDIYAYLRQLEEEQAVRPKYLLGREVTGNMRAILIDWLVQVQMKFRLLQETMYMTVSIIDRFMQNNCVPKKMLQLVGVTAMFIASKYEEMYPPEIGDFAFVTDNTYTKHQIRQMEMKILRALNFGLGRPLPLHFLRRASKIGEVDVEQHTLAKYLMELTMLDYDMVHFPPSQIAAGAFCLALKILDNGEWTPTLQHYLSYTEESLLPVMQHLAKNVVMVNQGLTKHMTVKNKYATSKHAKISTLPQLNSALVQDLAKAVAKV
Method: as §2

CDK3/cyclin E1 = target: T6, CDK3/cyclin E1 (Homo sapiens, UniProt Q00526); assay: Nanosyn biochemical assay
T6 construct: purchased BPS 40103
Method: as §2

CDK6/cyclin D3 = target: T7, CDK6/cyclin D3 (Homo sapiens, UniProt Q00534); assay: Nanosyn biochemical assay; details: Supp Fig S1D, representative dose response curve, read-out: IC50 CDK6 - Cyclin D3
T7 construct: purchased Carna 04-107
Method: as §2

CDK4/cyclin D1 = target: T8, CDK4/cyclin D1 (Homo sapiens, UniProt P11802); assay: Nanosyn biochemical assay
T8 construct: purchased ThermoFisher PV4400
T8 sequence (P11802 whole entry): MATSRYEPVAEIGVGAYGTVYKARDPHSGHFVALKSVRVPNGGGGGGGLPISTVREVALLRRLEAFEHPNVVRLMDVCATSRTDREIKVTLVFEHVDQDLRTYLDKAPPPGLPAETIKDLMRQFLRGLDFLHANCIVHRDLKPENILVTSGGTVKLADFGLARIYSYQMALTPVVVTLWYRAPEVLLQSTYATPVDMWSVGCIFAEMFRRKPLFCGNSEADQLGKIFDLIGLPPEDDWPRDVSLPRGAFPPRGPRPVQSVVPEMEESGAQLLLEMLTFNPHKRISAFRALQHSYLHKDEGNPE
T8 sequence (P24385 whole entry partner): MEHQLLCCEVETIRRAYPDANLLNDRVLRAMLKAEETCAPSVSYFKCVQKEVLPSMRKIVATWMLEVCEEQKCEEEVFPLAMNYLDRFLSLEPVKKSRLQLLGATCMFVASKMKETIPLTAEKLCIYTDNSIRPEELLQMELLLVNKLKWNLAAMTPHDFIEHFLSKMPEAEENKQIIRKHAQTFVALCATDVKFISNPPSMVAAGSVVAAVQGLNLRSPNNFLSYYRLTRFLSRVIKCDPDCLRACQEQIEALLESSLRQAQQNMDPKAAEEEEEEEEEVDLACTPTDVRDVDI
Method: as §2

CDK7 = target: T9, CDK7 (Homo sapiens, UniProt P50613); assay: Nanosyn biochemical assay; details: Supp Fig S1C, value (SEM), read-out: IC50 (nM) CDK7
T9 construct: purchased Carna 04-108
T9 sequence (P50613 whole entry): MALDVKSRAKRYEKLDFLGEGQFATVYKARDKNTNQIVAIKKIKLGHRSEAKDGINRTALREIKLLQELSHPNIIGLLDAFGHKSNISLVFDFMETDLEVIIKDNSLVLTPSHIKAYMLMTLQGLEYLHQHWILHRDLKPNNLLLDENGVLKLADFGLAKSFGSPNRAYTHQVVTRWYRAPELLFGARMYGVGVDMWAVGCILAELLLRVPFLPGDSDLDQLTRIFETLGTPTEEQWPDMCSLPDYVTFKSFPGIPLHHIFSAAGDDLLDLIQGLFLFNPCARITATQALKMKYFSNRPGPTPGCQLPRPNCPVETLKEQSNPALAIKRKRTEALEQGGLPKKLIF
T9 sequence (P51946 whole entry partner): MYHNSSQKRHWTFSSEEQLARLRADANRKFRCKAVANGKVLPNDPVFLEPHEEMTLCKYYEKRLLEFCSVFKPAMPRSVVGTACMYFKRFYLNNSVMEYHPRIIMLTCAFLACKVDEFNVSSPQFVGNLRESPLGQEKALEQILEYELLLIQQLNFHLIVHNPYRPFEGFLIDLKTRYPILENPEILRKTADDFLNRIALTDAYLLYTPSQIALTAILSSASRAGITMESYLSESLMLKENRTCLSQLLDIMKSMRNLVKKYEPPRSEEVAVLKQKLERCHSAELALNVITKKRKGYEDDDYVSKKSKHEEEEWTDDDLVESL
T9 sequence (P51948 whole entry partner): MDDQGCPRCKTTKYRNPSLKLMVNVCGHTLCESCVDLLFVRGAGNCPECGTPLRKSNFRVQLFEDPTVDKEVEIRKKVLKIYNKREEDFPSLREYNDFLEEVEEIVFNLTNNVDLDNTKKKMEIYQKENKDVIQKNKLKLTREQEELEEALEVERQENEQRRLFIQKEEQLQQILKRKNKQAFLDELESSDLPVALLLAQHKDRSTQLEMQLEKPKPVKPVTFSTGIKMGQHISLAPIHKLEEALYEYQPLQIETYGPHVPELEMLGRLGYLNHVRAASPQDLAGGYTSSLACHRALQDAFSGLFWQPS
Method: as §2

CDK5 = target: T10, CDK5 (Homo sapiens, UniProt Q00535); assay: Nanosyn biochemical assay
T10 construct: purchased ThermoFisher PV3000
T10 sequence (Q00535 whole entry): as the sequence (Q00535 whole entry) above
T10 sequence (Q15078 2-307 partner limits assumed): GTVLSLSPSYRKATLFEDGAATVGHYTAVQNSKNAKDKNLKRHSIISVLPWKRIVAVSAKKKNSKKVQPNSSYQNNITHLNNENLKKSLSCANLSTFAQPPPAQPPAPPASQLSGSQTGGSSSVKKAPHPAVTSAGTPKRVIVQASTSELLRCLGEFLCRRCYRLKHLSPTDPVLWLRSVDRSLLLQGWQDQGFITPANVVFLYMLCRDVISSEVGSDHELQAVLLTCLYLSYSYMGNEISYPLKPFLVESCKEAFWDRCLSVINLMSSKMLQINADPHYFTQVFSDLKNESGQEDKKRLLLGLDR
Method: as §2

[3] = Microsomal stability assay; type: in vitro ADME
Method: Microsomal stability was determined by Absorption Systems (Exton, PA). INX-315 was tested in mixed-gender human liver microsomes (Lot #1010420), male Sprague-Dawley rat liver microsomes (Lot #1910100), male CD-1 mouse liver microsomes (Lot #2010017), and male beagle dog liver microsomes (Lot #2010046) were purchased from XenoTech/BioIVT by Absorption Systems. The reaction mixture, minus NADPH, was prepared as described below. The test article was added into the reaction mixture at a final concentration of 1 µmol/L. The control compound, testosterone, was run simultaneously with the test article in a separate reaction. The reaction mixture (without cofactor) was equilibrated in a shaking water bath at 37°C for 5 minutes. The reaction was initiated by the addition of the cofactor, and the mixture was incubated in a shaking water bath at 37°C. Aliquots (100 µL) were withdrawn at 0, 10, 20, 30, and 60 minutes. Test article and testosterone samples were immediately combined with 400 µL of ice-cold 50/50 acetonitrile (ACN)/H2O containing 0.1% formic acid and internal standard to terminate the reaction. The samples were then mixed and centrifuged to precipitate proteins. All samples were assayed by LC-MS/MS using electrospray ionization. The peak area response ratio (PARR) of analyte to internal standard at each time point was compared to the PARR at time 0 to determine the percent remaining at each time point. Half-lives and clearance were calculated using GraphPad software (RRID:SCR_002798), fitting to a single-phase exponential decay equation.

Compound: NS(=O)(=O)c1ccc(Nc2ncc3cc4n(c3n2)C2(CCCCC2)C(=O)NN4)cc1 [INX-315]
- IC50 ([1]; read-out: cellular IC50): < 0.1 µM
- IC50 ([1]; read-out: cellular IC50, range): 0.01 to 0.064 µM
- IC50 (all other targets): > 0.01 µM
- IC50 (CDK2/cyclin A1/E1/O): ≤ 0.004 µM
- IC50 (CSF1R): 0.00229 µM
- cell cycle effect (OVCAR3 cells): potent G1 arrest
- IC50 ([2]; read-out: IC50, range): 0.159 to 3.56 µM
- IC50 ([2]; read-out: mean IC50): 1.44 µM
- IC50 (CDK2/cyclin E1; Supp Fig S1C, value (SEM), read-out: IC50 (nM) CDK2/cyclin E1): 0.6 nM
- IC50 (CDK2/cyclin E1; Supp Fig S1D, representative dose response curve, read-out: IC50 CDK2 - Cyclin E): 0.644 nM
- increase in potency on CDK2 relative to compound C (CDK2/cyclin E1; biochemical IC50s): ~10 fold
- selectivity for CDK2 compared with CDK1 (CDK2/cyclin E1; biochemical IC50s): 50 fold
- IC50 (CDK2/cyclin A2): 0.00296 µM
- IC50 (CDK9/cyclin T1): 0.0386 µM
- IC50 (CDK5/p25): 21.4 nmol/L
- IC50 (CDK1/cyclin B1; Supp Fig S1C, value (SEM), read-out: IC50 (nM) CDK1/B1): 30 nM
- IC50 (CDK1/cyclin B1; Supp Fig S1D, representative dose response curve, read-out: IC50 CDK1 - Cyclin B): 29.1 nM
- IC50 (CDK3/cyclin E1; ATP at Km, value (SEM), read-out: IC50 (nmol/L) CDK3/cyclin E1): 15.1 nmol/L
- IC50 (CDK3/cyclin E1; Supp Fig S1D, representative dose response curve, read-out: IC50 CDK3 - Cyclin E): 15.1 nmol/L
- IC50 (CDK6/cyclin D3): 0.291 µM
- IC50 (CDK4/cyclin D1; Supp Fig S1C, value (SEM), read-out: IC50 (nM) CDK4/cyclin D1): 126 nM
- IC50 (CDK4/cyclin D1; Supp Fig S1D, representative dose response curve, read-out: IC50 CDK4 - Cyclin D): 127 nM
- IC50 (CDK7): > 10000 nM
- IC50 (CDK5; ATP at Km, value (SEM), read-out: IC50 (nmol/L) CDK5): 23.1 nmol/L
- IC50 (CDK5; Supp Fig S1C, value (SEM), read-out: IC50 (nM) CDK5): 23.1 nmol/L
- IC50 (CDK5; Supp Fig S1D, representative dose response curve, read-out: IC50 CDK5 - p35): 23.1 nmol/L
- half-life at 1 µmol/L ([3]; both sexes, human, liver microsomes, 1 µmol/L, 60 min incubation, read-out: Half-life): > 1 h
- half-life at 1 µmol/L ([3]; both sexes, human, liver microsomes, longer than the duration of the experiment, read-out: calculated half-life (in parenthesis)): 1.78 h
- half-life at 1 µmol/L ([3]; male, CD-1, liver microsomes, Mouse microsomes, 60 min incubation): 0.44 h
- half-life at 1 µmol/L ([3]; male, Sprague-Dawley, rat, liver microsomes, 1 µmol/L, 60 min incubation, read-out: Half-life): > 1 h
- half-life at 1 µmol/L ([3]; male, Sprague-Dawley, rat, liver microsomes, longer than the duration of the experiment, read-out: calculated half-life (in parenthesis)): 1.11 h
- half-life at 1 µmol/L ([3]; male, beagle, dog, liver microsomes, 1 µmol/L, 60 min incubation, read-out: Half-life): > 1 h
- half-life at 1 µmol/L ([3]; male, beagle, dog, liver microsomes, longer than the duration of the experiment, read-out: calculated half-life (in parenthesis)): 1.34 h
